Structures can show the parent of a compound that is named as a salt.
The compounds below were run on ZIKV replicon in Vero cells (assay: ZIKV Replication Inhibition Assay (replicon, NanoLuc)). Settings: Zika virus, Vero, 72 h, read-out: Zika Replicon EC50.

Structure (SMILES)	EC50 [nM]
Cc1ncn(C)c1-c1ccc(C[n+]2cc([N-]C(=O)Nc3cccc(C(F)(F)F)c3)on2)nc1 [Example 118, (3-((5-(1,4-dimethyl-1H-imidazol-5-yl)pyridin-2-yl)methyl)-1,2,3-oxadiazol-3-ium-5-yl)((3-(trifluoromethyl)phenyl)carbamoyl)amide]	100 to 1000
CC(Cc1ccccc1)[n+]1cc([N-]C(=O)Nc2ccc3ccccc3c2)on1 (stereo not drawn) [Example 3, (Naphthalen-2-ylcarbamoyl)(3-(1-phenylpropan-2-yl)-1,2,3-oxadiazol-3-ium-5-yl)amide]	> 20000
COc1cc(NC(=O)[N-]c2c[n+](C(C)Cc3ccccc3)no2)cc(C(F)(F)F)c1 (stereo not drawn) [Example 34, ((3-methoxy-5-(trifluoromethyl)phenyl)carbamoyl)(3-(1-phenylpropan-2-yl)-1,2,3-oxadiazol-3-ium-5-yl)amide]	> 20000
NCc1ccccc1-c1ccc(C[n+]2cc([N-]C(=O)Nc3cccc(C(F)(F)F)c3)on2)nc1 [Example 121, (3-((5-(2-(aminomethyl)phenyl)pyridin-2-yl)methyl)-1,2,3-oxadiazol-3-ium-5-yl)((3-(trifluoromethyl)phenyl)carbamoyl)amide]	100 to 1000
O=C([N-]c1c[n+](Cc2ccc3ccccc3c2)no1)Nc1cccc(C(F)(F)F)c1 [Example 18, (3-(naphthalen-2-ylmethyl)-1,2,3-oxadiazol-3-ium-5-yl)((3-(trifluoromethyl)phenyl)carbamoyl)amide]	1000 to 20000
CC(=O)NC[C@H](Cc1ccc(-c2ccccc2)cc1)[n+]1cc([N-]C(=O)Nc2cccc(C(F)(F)F)c2)on1 [Example 70, (S)-(3-(1-(1,1′-biphenyl-4-yl)-3-acetamidopropan-2-yl)-1,2,3-oxadiazol-3-ium-5-yl)((3-(trifluoromethyl)phenyl)carbamoyl)amide]	> 20000
CC(Cc1ccccc1)[n+]1cc([N-]C(=O)Nc2ccc(C(F)(F)F)cc2)on1 (stereo not drawn) [Example 2, (3-(1-phenylpropan-2-yl)-1,2,3-oxadiazol-3-ium-5-yl)((4-(trifluoromethyl)phenyl)carbamoyl)amide]	> 20000
O=C([N-]c1c[n+](C2(c3ccccc3)CC2)no1)Nc1cccc(C(F)(F)F)c1 [Example 25, (3-(1-phenylcyclopropyl)-1,2,3-oxadiazol-3-ium-5-yl)((3-(trifluoromethyl)phenyl)carbamoyl)amide]	1000 to 20000
O=C([N-]c1c[n+](C2Cc3ccccc3C2)no1)Nc1cccc(C(F)(F)F)c1 [Example 10, (3-(2,3-dihydro-1H-inden-2-yl)-1,2,3-oxadiazol-3-ium-5-yl)((3-(trifluoromethyl)phenyl)carbamoyl)amide]	1000 to 20000
C=C(c1ccccc1)[n+]1cc([N-]C(=O)Nc2cccc(C(F)(F)F)c2)on1 [Example 35, (3-(1-Phenylvinyl)-1,2,3-oxadiazol-3-ium-5-yl)((3-(trifluoromethyl)phenyl)carbamoyl)amide]	1000 to 20000
COc1ncnc(C)c1-c1ccc(C[n+]2cc([N-]C(=O)Nc3cccc(C(F)(F)F)c3)on2)cc1 [Example 111, (3-(4-(4-methoxy-6-methylpyrimidin-5-yl)benzyl)-1,2,3-oxadiazol-3-ium-5-yl)((3-(trifluoromethyl)phenyl)carbamoyl)amide]	< 100
CC(Cc1ccccc1)[n+]1cc([N-]C(=O)Nc2ccc3ncccc3c2)on1 (stereo not drawn) [Example 12, (3-(1-phenylpropan-2-yl)-1,2,3-oxadiazol-3-ium-5-yl)(quinolin-6-ylcarbamoyl) amide]	> 20000
CC(Cc1ccccc1)[n+]1cc([N-]C(=O)Nc2cccc(C(F)(F)F)c2)on1 (stereo not drawn) [Example 1, (3-(1-Phenylpropan-2-yl)-1,2,3-oxadiazol-3-ium-5-yl)((3-(trifluoromethyl)phenyl)carbamoyl)amide]	1000 to 20000
Cc1cnncc1-c1ccc(C[n+]2cc([N-]C(=O)Nc3cccc(C(F)(F)F)c3)on2)cc1 [Example 93, (3-(4-(5-methylpyridazin-4-yl)benzyl)-1,2,3-oxadiazol-3-ium-5-yl)((3-(trifluoromethyl)phenyl)carbamoyl)amide]	< 100
Cc1noc(C)c1-c1ccc(C[n+]2cc([N-]C(=O)Nc3nccc(C(F)(F)F)n3)on2)nc1 [Example 171, (3-((5-(3,5-dimethylisoxazol-4-yl)pyridin-2-yl)methyl)-1,2,3-oxadiazol-3-ium-5-yl)((4-(trifluoromethyl)pyrimidin-2-yl)carbamoyl)amide]	1000 to 20000
O=C([N-]c1c[n+](Cc2ccc(-c3cccc4c3CNC4)cn2)no1)Nc1cccc(C(F)(F)F)c1 [Example 119, (3-((5-(isoindolin-4-yl)pyridin-2-yl)methyl)-1,2,3-oxadiazol-3-ium-5-yl)((3-(trifluoromethyl)phenyl)carbamoyl)amide]	100 to 1000
Cc1ncnc(OCCO)c1-c1ccc(C[n+]2cc([N-]C(=O)Nc3cccc(C(F)(F)F)c3)on2)cc1 [Example 112, (3-(4-(4-(2-hydroxyethoxy)-6-methylpyrimidin-5-yl)benzyl)-1,2,3-oxadiazol-3-ium-5-yl)((3-(trifluoromethyl)phenyl)carbamoyl)amide]	< 100
Cc1noc(C)c1-c1cnc(C[n+]2cc([N-]C(=O)Nc3cccc(C(F)(F)F)c3)on2)cn1 [Example 169, (3-((5-(3,5-dimethylisoxazol-4-yl)pyrazin-2-yl)methyl)-1,2,3-oxadiazol-3-ium-5-yl)((3-(trifluoromethyl)phenyl)carbamoyl)amide]	100 to 1000
Cc1nc(OCCN(C)C)ncc1-c1ccc(C[n+]2cc([N-]C(=O)Nc3cccc(C(F)(F)F)c3)on2)nc1 [Example 43, (3-((5-(2-(2-(dimethylamino)ethoxy)-4-methylpyrimidin-5-yl)pyridin-2-yl)methyl)-1,2,3-oxadiazol-3-ium-5-yl)((3-(trifluoromethyl)phenyl)carbamoyl)amide]	100 to 1000
Cc1ncccc1-c1ccc(C[n+]2cc([N-]C(=O)Nc3cccc(C(F)(F)F)c3)on2)cc1 [Example 92, (3-(4-(2-methylpyridin-3-yl)benzyl)-1,2,3-oxadiazol-3-ium-5-yl)((3-(trifluoromethyl)phenyl)carbamoyl)amide]	< 100
O=C([N-]c1c[n+](Cc2cccc(-c3ccccc3)c2)no1)Nc1cccc(C(F)(F)F)c1 [Example 27, (3-([1,1′-biphenyl]-3-ylmethyl)-1,2,3-oxadiazol-3-ium-5-yl)((3-(trifluoromethyl)phenyl)carbamoyl)amide]	1000 to 20000
O=C([N-]c1c[n+](Cc2csc(-c3cncnc3)c2)no1)Nc1cccc(C(F)(F)F)c1 [Example 100, (3-((5-(pyrimidin-5-yl)thiophen-3-yl)methyl)-1,2,3-oxadiazol-3-ium-5-yl)((3-(trifluoromethyl)phenyl)carbamoyl)amide]	100 to 1000
Cc1noc(C)c1-c1ccc([C@H](CN)[n+]2cc([N-]C(=O)Nc3cccc(C(F)(F)F)c3)on2)cc1 [Example 99, (R)-(3-(2-amino-1-(4-(3,5-dimethylisoxazol-4-yl)phenyl)ethyl)-1,2,3-oxadiazol-3-ium-5-yl)((3-(trifluoromethyl)phenyl)carbamoyl)amide formate]	< 100
Cc1ncc(-c2ccc(C[n+]3cc([N-]C(=O)Nc4cccc(C(F)(F)F)c4)on3)cc2)n1C [Example 105, (3-(4-(1,2-dimethyl-1H-imidazol-5-yl)benzyl)-1,2,3-oxadiazol-3-ium-5-yl)((3-(trifluoromethyl)phenyl)carbamoyl)amide]	100 to 1000
